{
  "source": "patent US20160097044A1",
  "about": "“Antimicrobial Enzyme Fusions Reduce Resistance and Kill Intracellular Staphylococcus aureus” (The United States of America, as Represented by the …, priority 2014, published 2016)",
  "key": {"S. aureus": {"test_system": "S. aureus", "test": "Murine model of staphylococcal osteomyelitis (femur)", "assay_type": "in vivo, C57BL/6J mice", "conditions": "5 mg/kg i.m. at site of infection, twice in 24 h, N=6", "protocol": "Neonatal mouse whole calvaria were treated for 4 hours with chimeric peptidoglycan hydrolases or buffer alone, 24 hours post inoculation with GFP-expressing S. aureus. Calvaria were embedded in freeze media, sectioned, and subjected to fluorescence imaging. The image shown is a representative figure for triplicate sections of three separate calvaria. FIG. 8b depicts fluorescence intensity from these sections measured in ImageJ and defined as arbitrary fluorescence standardized to the untreated control. Error bars represent SEM of four replicate experiments. FIG. 8c depicts ex-vivo intracellular S. aureus eradication. Infected calvaria were homogenized and CFU were counted post treatment. Error bars represent SEM. FIG. 8d depicts a murine model of staphylococcal osteomyelitis. C57BL/6J mice were anesthetized and their femurs were surgically exposed. […] The femurs were removed, homogenized, and plated to quantify the bacterial load. […] Asterisks represent statistical significance as determined by one-way ANOVA followed by Tukey's posthoc test.\nWe utilized a previously described (Marriott, supra) murine model of staphylococcal osteomyelitis that reproduces the clinical and gross pathological phases of inflammatory bone diseases, such as human post-traumatic osteomyelitis. […] Asterisks represent statistical significance as determined by one-way ANOVA followed by Tukey's posthoc test."}, "[1]": {"test_system": "intracellular S. aureus Newbould 305 in bovine mammary epithelial cell line (MAC-T)", "test": "Intracellular S. aureus eradication assay in MAC-T cells", "assay_type": "cell-based", "conditions": "25 μg in 1 ml DMEM, 2.5 h", "from_the_text": "FIGS. 5a-5e depict peptidoglycan hydrolase-protein transduction domain (PGH-PTD) eradication of intracellular S. aureus in cultured cells. Cultured cells were infected, treated with gentamicin to kill extracellular S. aureus, and then treated with the peptidoglycan hydrolases indicated. All results are standardized to the gentamicin (GENT) only control. Nomenclature of the peptidoglycan hydrolase constructs is as in FIG. 1. Asterisks indicate statistical significance detected with single factor ANOVA (α=0.05) with paired t-test posthoc analyses α=0.05 adjusted with Sidák correction for multiple comparisons (for all cases p<0.01). […] Error bars represent SEM. […] Yellow staining in the combined panel represents intracellular co-localization (in a single plane as determined by z-stack analysis) of both S. aureus and K-L-PTD1 (blue arrow). […]\nThree similar intracellular S. aureus eradication assays from three different labs were optimized for (A) a cultured bovine mammary epithelial cell line (MAC-T, Nexia Biotechnologies, Quebec, Canada; Almeida, supra), (B) primary C57BL/6 mouse-derived osteoblasts (mOBs) (McCall et al. 2008. J. Bone Miner. Res. 23: 30-40) or (C) human brain microvascular endothelial cells (hBMEC; Stins, supra). […] The cell lysate was subjected to serial dilution plating, and the resultant CFUs were counted and normalized to the gentamicin control for each assay. […]"}},
  "data": [
    {"substance": "K-L: both LysK lytic domains fused to the N-terminus of lysostaphin; SEQ ID NO:5, protein SEQ ID NO:6", "values": [
      {"measurement": "bacterial load in femur compared to no treatment", "setting": "S. aureus", "value": "significantly reduced bacterial load as compared to no treatment"},
      {"measurement": "intracellular S. aureus CFUs relative to gentamicin only control", "setting": "[1]", "value": "reduced the intracellular bacteria recovered"}
    ]}
  ]
}
